PMC4081582, “Enhancing Effect of Borneol and Muscone on Geniposide Transport across the Human Nasal Epithelial Cell Monolayer” (PLoS ONE, 2014)

Legend:
Assay type in all cases: cell-based, human
actin = experiment: Actin immunostaining of HNEC monolayer (tight junction); conditions: 3 h exposure with geniposide 50 µg·mL^−1, vs control
Excerpt: Cells cultured on 12-well polyester membrane Transwell clear inserts were stained for actin. […] Fluorescence was visualized on an epifluorescence microscope (IX-71, Olympus, Japan) using a blue filter and images were taken using the analysis software.

HNEC monolayer = experiment: TEER measurement of HNEC monolayer
Protocol: Transepithelial electrical resistance was measured using an EVOM instrument (Millipore Corporation, USA) to check the monolayer integrity. The TEER of untreated cells and cells treated with borneol and muscone was determined in BEGM:DMEM/F12 (1∶1) before the experiment, after the experiment and after 24 h.

HNECs [1] = experiment: Membrane fluidity of HNECs by FRAP
Protocol: The cells were seeded on cell plate at a density of 5×10^4 cells·cm^−2. The above formulation groups were added and the plates were incubated for 3 h at 37 °C in a 5% CO2 incubator. Cells were rinsed with HBSS and stained with NBD-C6-HPC at 2 µg·mL^−1 for 30 min.
A method of fluorescence recovery after photobleaching (FRAP) was used here. After the definition of line scanning position, length and photobleaching position, the monolayer was visualized by a Confocal Laser Scanning Microscope under the following conditions: excitation wavelength of 488 nm, emission wavelength of 530 nm, laser power for fluorescence bleaching of 100%, bleaching time of 0.7 s, scanning frequency of 1.65 s and the total scanning time of 100 s. The fluorescence intensity time-variation at the photobleaching position was recorded and image formation was obtained by confocal tomoscanning.
The membrane fluidity was represented by fluorescence recovery rate (R) which was calculated with the following equation (4): [drawing 4] where F0 is the instant fluorescence value after photobleaching, F1 is the fluorescence value before photobleaching and F2 is the fluorescence recovery value after photobleaching.

HNECs [2] = experiment: MTT cytotoxicity assay on HNECs; conditions: 24 h
Protocol: The cytotoxicity of the main active ingredients in “Xing Nao Jing” on HNECs was evaluated by the methyl thiazolyl tetrazolium (MTT) colorimetric assay. Briefly, 100 µL of 5×10^4 cells·mL^−1 was seeded into 96-well plates. After 24 h, the medium was removed and replaced with a fresh medium containing increasing concentrations of geniposide, borneol, muscone and their combinations for another 24 h. After that, 15 µL of a 5 mg·mL^−1 MTT solution in 100 µL BEGM was added to each well. After 4 h of incubation, the supernatant was discarded and formazan crystals were dissolved in DMSO followed by vigorous mixing. Control wells were incubated with BEGM only and were treated similarly as above. The optical density was determined at 490 nm with a Multiskan Go microplate reader (Thermo, USA). The percent viability of the cells was determined from the absorbance values considering that of the control as 100%.
The percentage of cell toxicity in the MTT assay was calculated by the following equation (1): [drawing 1]

SMILES: CC1(C)C2CCC1(C)C(O)C2 (stereo not shown) [borneol, Borneol]
- levels of the TJ proteins localized in the cell-cell junctions (actin): decreased
- TEER after washing and incubating with BEGM:DMEM/F12 (1∶1) for 24 h (HNEC monolayer; after permeation experiment): increased again
- TEER decrease during permeation studies, of the initial value (HNEC monolayer; borneol 55.6, 111.2 µg·mL^−1, muscone 8.34, 16.68 µg·mL^−1, and combinations, P<0.05): 10–20%
- Fluorescence recovery rate R (%)±SD (HNECs [1]; Bo 27.8 µg·mL^−1 with Ge 50 µg·mL^−1, 3 h): 37.08±5.05%
- Fluorescence recovery rate R (%)±SD (HNECs [1]; Bo 55.6 µg·mL^−1 with Ge 50 µg·mL^−1, 3 h): 49.60±4.21 %
- Fluorescence recovery rate R (%)±SD (HNECs [1]; Bo 111.2 µg·mL^−1 with Ge 50 µg·mL^−1, 3 h): 57.33±4.62 %
- concentration range with no cell cytotoxicity (HNECs [2]): 0 to 300000 ng/mL
